Counter-ions that a name gives are not always drawn. Like-named read-outs stand apart in the source and are kept apart here. Values belong to the molecule of their own block, whether it stands above or below them.
Experiments:
[1] = biological target: T. cruzi Tulahuen genetically modified to express Beta-galactosidase; settings: cited from earlier work; for EC50: Broad dataset, read-out: EC50 in the Broad dose response dataset
T. cruzi = tested on: T. cruzi; design: method as in PMID 21912715; settings: retest of Broad HTS hits in one study; cited from earlier work
T. cruzi CA-I/72 = experiment: Secondary screening (dose-response assay); format: cell-based, Trypanosoma cruzi
Protocol: (§1) T. cruzi CA-I/72 trypomastigotes were obtained from C2C12 infected-culture supernatants after 4–7 days of infection. Cultures were maintained at 37°C with 5% CO2. […] Compounds were added at 10 mM in 50 nl per well using a Biomek FX (Beckman Coulter) for a final 10 μM concentration in 50 μl total volume, and 2,500 parasites were added in 10 μl per well. The plate was incubated for 72 hours at 37°C with 5% CO2. After the incubation, the plate was fixed with the addition of 50 μl of 8% paraformaldehyde solution, followed by two successive washing steps using PBS. Finally, a staining solution containing 0.5 μg/ml of 4',6-diamidino-2-phenylindole (DAPI) was added to each well of the plate and incubated for at least 4 hours prior to reading. Images were acquired by an IN Cell Analyzer 2000 (GE Healthcare) and analyzed by IN Cell Analyzer Developer 1.6 software. […] Numbers of host cells and intracellular amastigotes were determined based on host cell and parasite nucleus quantification, providing a measure of growth inhibition during the first 72 h of post-infection treatment compared to untreated controls. […] The host cell viability was assessed based on the total number of cells divided by the average number of cells from untreated controls (0.1% DMSO), being <0.5 considered a cytotoxic compound. This assay was performed in duplicate.
The hit selection criteria: >50% activity at 10 μM and >0.5 host cell viability in the primary screening. To determine the potency of the hit compounds, we performed a dose-response assay. EC50 values of compounds were determined applying the same assay used in the primary screening. […] Then, 50 nl of each sample were diluted in 50 μl media (DMEM H-21) and added to the experimental plate followed by incubation at 37°C with 5% CO2 for 72 h.

[2] = tested on: transgenic T.cruzi Brazil luc strain; experiment: 4-day mouse model of infection, luciferase readout; format: in vivo, Trypanosoma cruzi; settings: for Chagas mouse model (4 days treatment, luciferase): In vivo efficacy at 50 mg/kg bid (IP): Balb/c mice, 50 mg/kg b.i.d. IP, read at day 7 post-infection, benznidazole = 100%, vehicle = 0%
Excerpt: To assess in vivo efficacy of test compounds, a 4-day mouse model of infection by transgenic T.cruzi Brazil luc strain expressing firefly luciferase was used as previously described. Six-week-old female Balb/c mice (average weight 20g) were obtained from Simonsen Labs (Gilroy, CA). All animal protocols were approved and carried out in accordance with the guidelines established by the Institutional Animal Care and Use Committee from UCSD (Protocol S14187). Mice were housed at a maximum of 5 per cage and kept in a specific-pathogen-free (SPF) room at 20 to 24°C under a 12-h light/12-h dark cycle and provided with sterilized water and chow ad libitum. To infect the mice, trypomastigotes of T. cruzi Brazil luc strain were used. The parasites were harvested from culture supernatant 7 days after the infection of C2C12 myocytes in T.75 culture flasks using DMEM media supplemented with 5% FBS. The harvested parasites were counted and the density was adjusted for 10^6 parasites per milliliter of DMEM media without FBS. For the mouse infection, 100 ul of the parasite solution was injected intraperitoneally (10^5 trypomastigotes) per mouse. Starting on day 3 the infected mice were treated with test compounds at 50 mg/kg administered in 20% Kolliphor, IP, b.i.d., for four consecutive days. Two control groups included untreated mice, which received a vehicle (20% Kolliphor HS 15, a.k.a. Solutol), and the positive control groups, which received 50 mg/kg benznidazole, IP, twice a day (b.i.d). At day 7 post-infection, the luminescent signal from infected mice was read upon injection of D-luciferin. The absolute numbers of measured photons/s/cm^2 were averaged between all five mice in each group. The average photons/s/cm^2 from the group treated with benznidazole was normalized as 100% efficacy and the average photons/s/cm^2 from the group treated with vehicle only was normalized as 0% efficacy. Using a linear correlation, the average photons/s/cm^2 of each compound was normalized in the same efficacy scale as the controls.

Host cell cytotoxicity = format: cell-based; settings: mouse; C2C12 host cells
Protocol: as §1

[3] = Trypanosoma cruzi, C2C12, 72 h, intracellular T. cruzi in C2C12 cells, 72 h, read-out: EC50
[4] = Trypanosoma cruzi, intracellular T. cruzi in C2C12 cells, 72 h, read-out: EC90
[5] = intracellular T. cruzi in C2C12 cells, 72 h, read-out: EC50

Compound: COc1ccc(CCN(C)CCCC(C#N)(c2ccc(OC)c(OC)c2)C(C)C)cc1OC (racemic) [SC-0005695, (±)-Verapamil hydrochloride]
- EC50 [1]: < 100 nM
- IC50 (T. cruzi): > 50000 nM
- EC90 (T. cruzi CA-I/72; Trypanosoma cruzi, C2C12, 72 h): 143 nM
- EC50 (T. cruzi CA-I/72; intracellular T. cruzi in C2C12 cells, 72 h, listed as (±)-Verapamil hydrochloride): 38.3 nM
- EC50 (T. cruzi CA-I/72; intracellular T. cruzi in C2C12 cells, 72 h, listed as verapamil): < 1000 nM
- Chagas mouse model (4 days treatment, luciferase): In vivo efficacy at 50 mg/kg bid (IP) [2]: 55.1%

- EC50 (T. cruzi CA-I/72; [3]): < 1000 nM
- EC90 (T. cruzi CA-I/72; [4]): 6980 nM
- EC50 (T. cruzi CA-I/72; [5]): 775 nM
Compound: NC(=O)N/N=C/c1ccc([N+](=O)[O-])o1 [SC-0011754, Nitrofural]
- CC50 at 72 h (Host cell cytotoxicity): > 10000 nM

Compound: O=C(NCO)N/N=C/c1ccc([N+](=O)[O-])o1 [hydroxymethylnitrofurazone, Hydroxymethylnitrofurazone]
- Chagas mouse model (4 days treatment, luciferase): In vivo efficacy at 50 mg/kg bid (IP) ([2]; 50 mg/kg): 78.5%

Compound: O=C1OCCN1/N=C/c1ccc([N+](=O)[O-])o1 [SC-0011742, Furazolidone]
- Chagas mouse model (4 days treatment, luciferase): In vivo efficacy at 50 mg/kg bid (IP) ([2]; listed as Furazolidone, 50 mg/kg): 100.5%
- Chagas mouse model (4 days treatment, luciferase): In vivo efficacy at 50 mg/kg bid (IP) ([2]; listed as furazolidone, 50 mg/kg): 100%

Compound: O=C(Cn1ccnc1[N+](=O)[O-])NCc1ccccc1 [Benznidazole]
- Chagas mouse model (4 days treatment, luciferase): In vivo efficacy at 50 mg/kg bid (IP) [2]: 100%

Compound: COc1ccc2cc1Oc1ccc(cc1)C[C@H]1c3cc(c(OC)cc3CCN1C)Oc1c(OC)c(OC)cc3c1[C@H](C2)N(C)CC3 [SC-0011496, Tetrandrine]
- Result in the larger Broad HTS screening dataset to identify inhibitors of replication [1]: inactive
- EC50 (T. cruzi CA-I/72; [3]): < 1000 nM
- EC90 (T. cruzi CA-I/72; [4]): 1570 nM
- EC50 (T. cruzi CA-I/72; [5]): 508 nM
- CC50 at 72 h (Host cell cytotoxicity): 1300 nM
- Chagas mouse model (4 days treatment, luciferase): In vivo efficacy at 50 mg/kg bid (IP) [2]: 43.6%
- Statistical significance of in vivo efficacy ([2]; Student t test vs vehicle at day 7, p≤ 0.05): does not appear to have statistically significant efficacy in vivo

Compound: COc1ccc2nc3cc(Cl)ccc3c(Nc3cc(CN4CCCC4)c(O)c(CN4CCCC4)c3)c2n1 [SC-0011799, Pyronaridine]
- EC50 [1]: < 587 nM
- EC90 (T. cruzi CA-I/72; [4]): 665 nM
- EC50 (T. cruzi CA-I/72; intracellular T. cruzi in C2C12 cells, 72 h, listed as Pyronaridine, read-out: EC50): 225 nM
- EC50 (T. cruzi CA-I/72; intracellular T. cruzi in C2C12 cells, 72 h, listed as pyronaridine, read-out: EC50): < 1000 nM
- CC50 at 72 h (Host cell cytotoxicity): 3000 nM
- Chagas mouse model (4 days treatment, luciferase): In vivo efficacy at 50 mg/kg bid (IP) [2]: 85.2%

From article PMC4482694, “Machine Learning Models and Pathway Genome Data Base for Trypanosoma cruzi Drug Discovery” (PLoS Neglected Tropical Diseases, 2015)
